In publication PMC5329948, “Caspase vinyl sulfone small molecule inhibitors prevent axonal degeneration in human neurons and reverse cognitive impairment in Caspase-6-overexpressing mice” (Molecular Neurodegeneration, 2017):

How the values were obtained:
recombinant Caspase-9 = target: T1, recombinant Caspase-9 (Homo sapiens, UniProt P55211); experiment: Caspase Inhibitor Drug Screening Kit (BioVision), LEHD-AFC substrate; type: biochemical; settings: not active site titrated
T1 construct: purchased BioVision
Method: (§1) The half-maximal inhibitory concentrations (IC50) for NWL inhibitors (Patent publication # WO/2009/140765, WO/2010/133000, and WO/2012/140500) was determined by incubating 0 to 20 μM NWL-117 and NWL-154 with 20 nM of active site-titrated Casp6 in SB at room temperature for 5 minutes. Then, 10 μM Ac-VEID-AFC was added and fluorescence measured for 20 min at 37 °C as described above. New World Laboratories performed the IC50 determination for NWL inhibitors dissolved in dimethyl sulfoxide (DMSO) against recombinant Casp1-10 using the Caspase Inhibitor Drug Screening Kits (BioVision, San Francisco, CA) following the manufacturer’s instructions and the preferred substrates for the caspases (Caspase-1: WAD-AFC, Caspase-2: VDVAD-AFC, Caspase-3: DEVD-AFC, Caspase-4: LEVD-AFC, Caspase-5: WEHD-AFC, Casp6:VEID-AFC, Caspase-7: DEVD-AFC, Caspase-8: IETD-AFC, Caspase-9: LEHD-AFC, Caspase-10: AEVD-AFC). In transfected HCT116 cells, 0 to 100 μM NWL inhibitors were added in the culture media and left on the cells for 2 h. Cells were washed once with 1 mL ice-cold PBS, incubated on ice for 5 min with 200 μL cell lysis buffer (CLB) (50 mM HEPES, 0.1% CHAPS, 0.1 mM EDTA), and gently scraped off. Protein concentrations were determined by Bradford assay (BioRad, Mississauga, ON, CA) by measuring the absorbance at 595 nm using the BioTek Synergy H4 plate reader. […]

[1] = system: APPWT-transfected primary human CNS neurons; experiment: Neuritic beading/degeneration in APPWT-transfected primary human neurons; type: cell-based; settings: for neuritic beading: APPWT/EGFP co-expression, 48 h; for neuritic beading / percentage of beaded neurons, fold of EGFP-alone: NWL 100 μM, Z-VEID-fmk 5 μM; for percentage of beaded neurons, fold of EGFP-alone: live imaging 72 h, APPWT vehicle 1.52, EGFP-alone 1.00, mean ± SEM
Method: Immunofluorescence on human neuron cultures: Primary human neurons were pre-treated 2 h and serum-deprived in the presence of 100 μM NWL-117, 100 μM NWL-154, or 5 μM Z-VEID-fmk (Biomol, Plymouth meeting, PA, USA) for 24 h. Following treatment, human neurons were washed once with warm PBS, fixed for 20 min at room temperature with 4% paraformaldehyde (Sigma, Oakville, ON, CA)/4% sucrose (BioRad, Mississauga, ON, CA) for TubΔCasp6 or 2% formaldehyde (Thermo Fisher Scientific, Waltham, MA, USA)/0.2% glutaraldehyde (Sigma, Oakville, ON, CA) for pBudEGFP or pBudEGFP/APP^WT-transfected neurons, incubated in permeabilization buffer (0.1% Triton X-100, 0.1 sodium citrate) for 1 min on ice, washed with PBS, blocked for 20 min at room temperature with 10% goat serum (Sigma, Oakville, ON, CA), and incubated with primary antibodies diluted in 10% goat serum in PBS overnight at 4 °C in a humid chamber. The glass coverslips were washed with PBS, and incubated with goat anti-rabbit secondary antibody coupled to Alexa 488 (Molecular Probes, Eugene, OR, USA) or Cy3 (GE Healthcare Life Sciences, Baie D’Urfe, QC, CA) and Hoechst 33342 (ImmunoChemistry, Bloomington, MN, USA) at 1 μg/mL for 2 h at room temperature. The coverslips were washed with PBS and rinsed in Milli-Q water before mounting in fluoromount (Dako, Burlington, ON, CA). Images were acquired by fluorescence microscopy and quantified using the ImageJ software (NIH, Bethesda, MD, USA) for TubΔCasp6 and manually counted for transfected EGFP(+)-neurons. Time lapse-imaging by live fluorescence microscopy: Primary human neurons were transfected with gold beads coated with pBudEGFP or pBudEGFP/APP^WT using a Helios Gene gun (BioRad, Mississauga, ON, CA). Briefly, cells were pre-treated with 100 μM NWL inhibitors or 5 μM Z-VEID-fmk for 2 h. The media was removed and the neurons were shot at 100 psi. The media was quickly replaced with the inhibitors present. The plasmid was expressed for 16 h before setting up the fluorescence microscope (Nikon Eclipse Ti) to acquire 20 images per condition every hour for 72 h at 37 °C with 5% CO2. The images were analyzed by counting the total number of neurons (50–100 neurons per condition per independent experiment), and the number of beaded, swollen soma, and healthy neurons. In addition, the time at which cells beaded was noted. Phase contrast microscopy: HCT116 cells, plated at a density of 1×10^5 cells/well and human neurons, plated at a density of 6×10^6 cells/well on poly-L-lysine were treated with PBS, 100 μM NWL-117, 100 μM NWL-154, or 2 μM staurosporine (Biomol, Plymouth meeting, PA, USA) for 24 h. Images were acquired with the Nikon Eclipse Ti microscope and the NIS-Elements (Version 3.10) software.

recombinant Caspase-10 = target: T2, recombinant Caspase-10 (Homo sapiens, UniProt Q92851); experiment: Caspase Inhibitor Drug Screening Kit (BioVision), AEVD-AFC substrate; type: biochemical; settings: not active site titrated
T2 construct: purchased BioVision
Method: as §1

recombinant Caspase-3 = target: T3, recombinant Caspase-3 (Homo sapiens, UniProt P42574); experiment: Caspase Inhibitor Drug Screening Kit (BioVision), DEVD-AFC substrate; type: biochemical; settings: not active site titrated
T3 construct: purchased BioVision
Method: (§2) The half-maximal inhibitory concentrations (IC50) for NWL inhibitors (Patent publication # WO/2009/140765, WO/2010/133000, and WO/2012/140500) was determined by incubating 0 to 20 μM NWL-117 and NWL-154 with 20 nM of active site-titrated Casp6 in SB at room temperature for 5 minutes. Then, 10 μM Ac-VEID-AFC was added and fluorescence measured for 20 min at 37 °C as described above. New World Laboratories performed the IC50 determination for NWL inhibitors dissolved in dimethyl sulfoxide (DMSO) against recombinant Casp1-10 using the Caspase Inhibitor Drug Screening Kits (BioVision, San Francisco, CA) following the manufacturer’s instructions and the preferred substrates for the caspases (Caspase-1: WAD-AFC, Caspase-2: VDVAD-AFC, Caspase-3: DEVD-AFC, Caspase-4: LEVD-AFC, Caspase-5: WEHD-AFC, Casp6:VEID-AFC, Caspase-7: DEVD-AFC, Caspase-8: IETD-AFC, Caspase-9: LEHD-AFC, Caspase-10: AEVD-AFC). In transfected HCT116 cells, 0 to 100 μM NWL inhibitors were added in the culture media and left on the cells for 2 h. Cells were washed once with 1 mL ice-cold PBS, incubated on ice for 5 min with 200 μL cell lysis buffer (CLB) (50 mM HEPES, 0.1% CHAPS, 0.1 mM EDTA), and gently scraped off. Protein concentrations were determined by Bradford assay (BioRad, Mississauga, ON, CA) by measuring the absorbance at 595 nm using the BioTek Synergy H4 plate reader. Caspase-6 activity was measured in 40–60 μg total protein as described above. The IC50 for recombinant and cellular caspases were determined using GraphPad Prism 5.0 (La Jolla, CA, USA) using a log (inhibitor) – response curve with a Hill slope of −1.

recombinant Caspase-7 = target: T4, recombinant Caspase-7 (Homo sapiens, UniProt P55210); experiment: as above; type: biochemical; settings: not active site titrated
T4 construct: purchased BioVision
Method: as §2

[2] = APPWT-transfected neurons, live imaging, 100 μM

T4 sequence (P55210 whole entry): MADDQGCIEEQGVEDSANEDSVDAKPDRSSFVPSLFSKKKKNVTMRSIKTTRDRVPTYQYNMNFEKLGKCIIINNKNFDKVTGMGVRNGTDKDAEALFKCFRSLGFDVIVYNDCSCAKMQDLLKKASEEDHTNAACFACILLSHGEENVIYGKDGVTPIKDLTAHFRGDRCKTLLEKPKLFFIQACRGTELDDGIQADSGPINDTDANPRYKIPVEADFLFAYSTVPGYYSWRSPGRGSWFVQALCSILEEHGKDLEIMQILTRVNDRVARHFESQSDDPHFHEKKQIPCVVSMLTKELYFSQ
T2 sequence (Q92851 220-521): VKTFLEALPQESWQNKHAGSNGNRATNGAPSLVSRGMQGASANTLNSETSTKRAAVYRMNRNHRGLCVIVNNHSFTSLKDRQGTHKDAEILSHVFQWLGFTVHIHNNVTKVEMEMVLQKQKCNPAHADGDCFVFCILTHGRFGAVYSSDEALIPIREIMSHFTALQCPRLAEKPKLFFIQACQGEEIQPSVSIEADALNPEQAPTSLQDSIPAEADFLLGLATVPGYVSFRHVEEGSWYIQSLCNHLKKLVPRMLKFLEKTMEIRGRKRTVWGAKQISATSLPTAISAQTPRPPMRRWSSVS
T3 sequence (P42574 29-277): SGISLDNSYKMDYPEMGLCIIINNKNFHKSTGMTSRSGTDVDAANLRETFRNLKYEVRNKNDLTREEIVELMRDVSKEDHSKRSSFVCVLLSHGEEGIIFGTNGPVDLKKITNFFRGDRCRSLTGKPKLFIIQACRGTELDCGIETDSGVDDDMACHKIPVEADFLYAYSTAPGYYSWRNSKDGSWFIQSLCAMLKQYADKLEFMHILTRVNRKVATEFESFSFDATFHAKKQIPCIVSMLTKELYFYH
T1 sequence (P55211 whole entry): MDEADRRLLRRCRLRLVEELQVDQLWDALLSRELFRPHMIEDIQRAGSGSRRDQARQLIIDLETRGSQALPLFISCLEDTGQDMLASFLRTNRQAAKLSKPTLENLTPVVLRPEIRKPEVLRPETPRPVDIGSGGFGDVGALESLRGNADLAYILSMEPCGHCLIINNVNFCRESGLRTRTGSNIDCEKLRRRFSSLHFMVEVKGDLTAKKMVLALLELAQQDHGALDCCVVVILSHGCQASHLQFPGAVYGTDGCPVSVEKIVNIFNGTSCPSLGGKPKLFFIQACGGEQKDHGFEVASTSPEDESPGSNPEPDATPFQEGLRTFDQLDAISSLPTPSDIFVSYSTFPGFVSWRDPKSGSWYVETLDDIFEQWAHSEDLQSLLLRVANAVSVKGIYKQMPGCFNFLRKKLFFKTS

SMILES | IC50 (recombinant Caspase-9) [µM] | neuronal soma rounding [1, 2] | neuronal survival (neurons with homogeneously distributed EGFP) [1, 2] | neuritic beading [1] | percentage of beaded neurons, fold of EGFP-alone [1] [fold] | IC50 (recombinant Caspase-10) [µM] | IC50 (recombinant Caspase-3) [µM] | IC50 (recombinant Caspase-7) [µM]
CCC(C)[C@H](NC(=O)[C@H](CCC(=O)O)NC(=O)[C@@H](NC(=O)OCc1ccccc1)C(C)C)C(=O)N[C@H](/C=C/S(C)(=O)=O)CC(=O)O (some centres unmarked) [NWL-117] | 0.79 | inhibited | significantly increases neuronal survival | prevented neuritic beading | 0.84 | 0.13 | 6.96 | > 100
CCC(C)[C@H](NC(=O)[C@H](CCC(=O)O)NC(=O)[C@@H](NC(=O)OCc1ccccc1)C(C)C)C(=O)N[C@H](/C=C(\Cl)S(C)(=O)=O)CC(=O)O (some centres unmarked) [NWL-154] | 6.4 | – | – | prevented neuritic beading | 1.07 | 0.19 | 1.34 | > 100
